Results reported in patent publication US20240024403A1, “Compositions and Methods for Managing Weight” (Unigen, Inc., priority 2012, published 2024).

Assay: High fat diet induced obesity (DIO) mouse model
Format: in vivo, C57CL/6J mice
Parameters: Epididymal Fat weight / Retroperitoneal Fat weight / Total Fat (sum of the three fat deposits) / Retroperitoneal Fat / Total Fat / Epididymal Fat, absolute weight / Retroperitoneal Fat, absolute weight: unit not given here
Conditions: for Weight (total body weight) / Total Weight: in g (unit assumed)
Description: C57CL/6J mice aged 4-6 weeks (Korea Research Institute of Bioscience & Biotechnology, Ohchang, Korea) were housed in Polycarbonate cages (five mice per cage) in a room with a 12 hr:12 hr light-dark cycle and an ambient temperature of 24° C. All the mice were fed a commercial chow diet for 1 week after arrival in the animal facility. Mice were then divided into normal and obesity groups and fed with normal diet (ND) and high fat diets (HFD) respectively. The HFD group was divided into multiple treatment groups: a high fat diet vehicle group (HFD), an orlistat (purchased as OTC drug Alli®) positive control treatment group (ORI, 40 mg/kg of animal weight, 2 times/day) and optionally a sibutramine positive control treatment group (10 mg/kg, 1 time/day). The HFD contained 340 g of fat/kg of HFD (310 g lard plus 30 g soybean oil; Harlan Laboratories, USA). The HFD was formulated to provide 60% of the total energy generated by the diet from fat by replacing carbohydrate energy with lard and soybean oil, whereas the normal diet (ND) group was fed a diet providing only 18% of the total diet energy from fat(Harlan Laboratories, USA).
Body weight was measured once each week and feed intake was measured twice per week. At the end of the experimental period, following a 12 hr. fasting period, the animals were anesthetized with ether, and blood was drawn from the abdominal vein. Liver and kidney and adipose tissues (epididymal, retroperitoneal, perirenal adipose tissues) were removed from each animal, rinsed with physiological saline, and weighed. Serum concentrations of glucose, total cholesterol, triglycerides, and LDL-cholesterol were determined using automatic analyzer (INTEGRA 400, Roche, Germany). Statistical significance of test results was measured using the Student's t-test.

[1] = DIO mice blood biochemistry, SIB 10 mg/kg, ORI 40 mg/kg, Mutamba extract 32 (G1) 1000 mg/kg, mean
[2] = DIO mice blood biochemistry, SIB 10 mg/kg, ORI 40 mg/kg, Mutamba extract 33-2 G1 1000 mg/kg, mean
[3] = DIO mice liver pathology score, SIB 10 mg/kg, ORI 40 mg/kg, Mutamba extract 32 (G1) 1000 mg/kg, mean
[4] = DIO mice, ORI 40 mg/kg, seven week study, mean
[5] = DIO mice, biochemistry parameters, G3, G4 1000 mg/kg oral two times per day
[6] = DIO mice, blood at end of study, ORI 40 mg/kg, mean
[7] = DIO mice, blood at end of study, ORI 40 mg/kg, G1 300 mg/kg (Morus:Magnolia 2:1)
[8] = DIO mice, blood at end of study, ORI 40 mg/kg, G1 1200 mg/kg (Morus:Yerba Mate 1:5)
[9] = DIO mice, liver pathology, ORI 40 mg/kg, mean
[10] = DIO mice, oral, seven weeks, combination (2:5) 700 mg/kg, ORI 40 mg/kg, group mean
[11] = DIO mice, oral, week 1, ORI 40 mg/kg, G1 700 mg/kg (Morus:Rosemary 2:5)
[12] = DIO mice, oral, week 1, ORI 40 mg/kg, G1 1200 mg/kg (Morus:Yerba Mate 1:5)
[13] = DIO mice, oral, week 2, ORI 40 mg/kg, G1 700 mg/kg (Morus:Rosemary 2:5)
[14] = DIO mice, oral, week 2, ORI 40 mg/kg, G1 1200 mg/kg (Morus:Yerba Mate 1:5)
[15] = DIO mice, oral, week 3, ORI 40 mg/kg, G1 700 mg/kg (Morus:Rosemary 2:5)
[16] = DIO mice, oral, week 3, ORI 40 mg/kg, G1 1200 mg/kg (Morus:Yerba Mate 1:5)
[17] = DIO mice, oral, week 4, ORI 40 mg/kg, G1 700 mg/kg (Morus:Rosemary 2:5)
[18] = DIO mice, oral, week 4, ORI 40 mg/kg, G1 1200 mg/kg (Morus:Yerba Mate 1:5)
[19] = DIO mice, oral, week 5, ORI 40 mg/kg, G1 700 mg/kg (Morus:Rosemary 2:5)
[20] = DIO mice, oral, week 5, ORI 40 mg/kg, G1 1200 mg/kg (Morus:Yerba Mate 1:5)
[21] = DIO mice, oral, week 6, ORI 40 mg/kg, G1 700 mg/kg (Morus:Rosemary 2:5)
[22] = DIO mice, oral, week 6, ORI 40 mg/kg, G1 1200 mg/kg (Morus:Yerba Mate 1:5)
[23] = DIO mice, oral, week 7, ORI 40 mg/kg, G1 700 mg/kg (Morus:Rosemary 2:5)
[24] = DIO mice, oral, week 7, ORI 40 mg/kg, G1 1200 mg/kg (Morus:Yerba Mate 1:5)
[25] = DIO mice, seven weeks, ORI 40 mg/kg, G1 300 mg/kg (Morus:Magnolia 2:1)
[26] = DIO mice, seven weeks, ORI 40 mg/kg, G1 1200 mg/kg (Morus:Yerba Mate 1:5)
[27] = DIO mice, week 1, G1-G4 1000 mg/kg oral gavage two times per day
[28] = DIO mice, week 2, G1-G4 1000 mg/kg oral gavage two times per day
[29] = DIO mice, week 3, G1-G4 1000 mg/kg oral gavage two times per day
[30] = DIO mice, week 4, G1-G4 1000 mg/kg oral gavage two times per day
[31] = DIO mice, week 5, G1-G4 1000 mg/kg oral gavage two times per day
[32] = DIO mice, week 6, G1-G4 1000 mg/kg oral gavage two times per day
[33] = DIO mice, week 7, G1-G4 1000 mg/kg oral gavage two times per day
[34] = DIO mice, G1-G4 1000 mg/kg oral gavage two times per day

## CCCCCCCCCCC[C@@H](C[C@@H]1OC(=O)[C@H]1CCCCCC)OC(=O)[C@H](CC(C)C)NC=O [ORI, orlistat]
[1]
  ALT: 40.42 U/L
  AST: 67.96 U/L
  HDL-C: 78.52 mg/dL
  LDL-C: 6.78 mg/dL
  T-chol: 184.40 mg/dL
  TG: 143.60 mg/dL
[2]
  LDL-C: 7.42 mg/dL
  T-chol: 182.40 mg/dL
  TG: 41.20 mg/dL
[3]
  Hepatocellular ballooning (0-2): 0.60
  Lobular Inflammation (0-3): 1.60
  Steatosis (0-3): 1.20
DIO mice liver pathology, sum of scores, SIB 10 mg/kg, ORI 40 mg/kg, Mutamba extract 32 (G1) 1000 mg/kg, mean
  NASH (sum): 3.40
[4]
  Food Intake: 3.195 g/day
  Weight Gain: 0.000 g/day
DIO mice, ORI 40 mg/kg, seven week study, body weight gain/food intake
  Food Efficiency Ratio (FER): 0.000
DIO mice, ORI 40 mg/kg, week 1, mean
  Weight Gain: −5.43
DIO mice, ORI 40 mg/kg, week 2, mean
  Weight Gain: −6.69
DIO mice, ORI 40 mg/kg, week 3, mean
  Weight Gain: −5.27
DIO mice, ORI 40 mg/kg, week 4, mean
  Weight Gain: −3.47
DIO mice, ORI 40 mg/kg, week 5, mean
  Weight Gain: −2.34
DIO mice, ORI 40 mg/kg, week 6, mean
  Weight Gain: −1.08
DIO mice, ORI 40 mg/kg, week 7, mean
  Weight Gain: 0.02
[5]
  ALP: 186.51 U/L
  ALT: 35.12 U/L
  AST: 62.03 U/L
  Glu: 267.22 mg/dL
  HDL-C: 74.22 mg/dL
  LDL-C: 7.56 mg/dL
  T-chol: 175.44 mg/dL
  TG: 46.78 mg/dL
  TP: 4.89 g/dL
[6]
  ALT: 21.83 U/L
  AST: 65.65 U/L
  TG: 27.83 mg/dL
[7]
  F-Glu (fasting glucose): 225.50 mg/dL
  LDL-C: 3.30 mg/dL
  T-Chol (total cholesterol): 134.00 mg/dL
  Triglyceride: 62.50 mg/dL
[8]
  F-Glu (fasting glucose): 225.50 mg/dL
  LDL-C: 3.30 mg/dL
  T-Chol (total cholesterol): 134.00 mg/dL
  Triglyceride: 62.50 mg/dL
[9]
  Hepatocellular ballooning (0-2): 0.67
  Lobular Inflammation (0-3): 1.33
  NASH (sum): 2.67
  Steatosis (0-3): 0.67
DIO mice, oral, seven weeks, combination 700 mg/kg, ORI 40 mg/kg, group mean
  Perirenal Fat: 0.43
DIO mice, oral, seven weeks, combination (2:5) 700 mg/kg, ORI 40 mg/kg, FER = body weight gain/food intake
  Food Efficiency Ratio (FER): 0.005
[10]
  Body Weight Gain: 0.012 g/day
  Food Intake: 2.711 g/day
DIO mice, oral, week 0, ORI 40 mg/kg, G1 700 mg/kg (Morus:Rosemary 2:5)
  Weight (total body weight): 42.39
DIO mice, oral, week 0, ORI 40 mg/kg, G1 1200 mg/kg (Morus:Yerba Mate 1:5)
  Total Weight: 38.40
DIO mice, oral, week 1, ORI 40 mg/kg, G1 300 mg/kg (Morus:Magnolia 2:1)
  Body Weight Gain: −3.20
[11]
  Body Weight Gain: −3.56
  Weight (total body weight): 38.83
[12]
  Weight Gain: −3.20
  Total Weight: 35.20
DIO mice, oral, week 2, ORI 40 mg/kg, G1 300 mg/kg (Morus:Magnolia 2:1)
  Body Weight Gain: −4.88
[13]
  Body Weight Gain: −5.75
  Weight (total body weight): 36.64
[14]
  Weight Gain: −4.88
  Total Weight: 33.58
DIO mice, oral, week 3, ORI 40 mg/kg, G1 300 mg/kg (Morus:Magnolia 2:1)
  Body Weight Gain: −3.34
[15]
  Body Weight Gain: −5.91
  Weight (total body weight): 36.48
[16]
  Weight Gain: −3.34
  Total Weight: 35.12
DIO mice, oral, week 4, ORI 40 mg/kg, G1 300 mg/kg (Morus:Magnolia 2:1)
  Body Weight Gain: −2.61
[17]
  Body Weight Gain: −3.82
  Weight (total body weight): 38.57
[18]
  Weight Gain: −2.61
  Total Weight: 35.84
DIO mice, oral, week 5, ORI 40 mg/kg, G1 300 mg/kg (Morus:Magnolia 2:1)
  Body Weight Gain: −2.04
[19]
  Body Weight Gain: −2.33
  Weight (total body weight): 40.07
[20]
  Weight Gain: −2.04
  Total Weight: 36.41
DIO mice, oral, week 6, ORI 40 mg/kg, G1 300 mg/kg (Morus:Magnolia 2:1)
  Body Weight Gain: −1.65
[21]
  Body Weight Gain: −1.44
  Weight (total body weight): 40.95
[22]
  Weight Gain: −1.65
  Total Weight: 36.80
DIO mice, oral, week 7, ORI 40 mg/kg, G1 300 mg/kg (Morus:Magnolia 2:1)
  Body Weight Gain: −0.07
[23]
  Body Weight Gain: 0.60
  Weight (total body weight): 42.99
[24]
  Weight Gain: −0.07
  Total Weight: 38.38
[25]
  Absolute Liver Weight: 1.05 g
  Body Weight Gain: -0.002 g/day
  Epididymal Fat weight: 1.92
  Food Intake: 3.961 g/day
  Perirenal Fat weight: 0.21
  Retroperitoneal Fat weight: 0.55
  Total Fat (sum of the three fat deposits): 2.68
DIO mice, seven weeks, ORI 40 mg/kg, G1 300 mg/kg, FER = body weight gain (g/day)/food intake (g/day)
  Food Efficiency Ratio (FER): 0.000
[26]
  Food Intake: 3.961 g/day
  Retroperitoneal Fat: 0.55
  Weight Gain: -0.002 g/day
DIO mice, seven weeks, ORI 40 mg/kg, G1 1200 mg/kg, FER = body weight gain (g/day)/food intake (g/day)
  Food Efficiency Ratio (FER): 0.000
DIO mice, week 0 (baseline), G1-G4 1000 mg/kg oral gavage two times per day
  Animal Body Weight, week 0: 41.44 gram
[27]
  Animal Body Weight, week 1: 40.17 gram
  Weight Gain, week 1: −3.97 gram
[28]
  Animal Body Weight, week 2: 36.20 gram
  Weight Gain, week 2: −5.37 gram
[29]
  Animal Body Weight, week 3: 34.80 gram
  Weight Gain, week 3: −4.08 gram
[30]
  Animal Body Weight, week 4: 36.09 gram
  Weight Gain, week 4: −3.11 gram
[31]
  Animal Body Weight, week 5: 37.06 gram
  Weight Gain, week 5: −1.26 gram
[32]
  Animal Body Weight, week 6: 38.91 gram
  Weight Gain, week 6: 0.05 gram
[33]
  Animal Body Weight, week 7: 40.22 gram
  Weight Gain, week 7: 0.72 gram
DIO mice, 2-week, Compositions 1, 2 1300 mg/kg/day, 3, 9 1700 mg/kg/day, orlistat 40 mg/kg 2 times/day, sibutramine 10 mg/kg 1 time/day
  Weight Gain 2-week: −5.07
DIO mice, 2-week, doses as in Example 76
  Average Feed Intake 2-week: 2.79
DIO mice, 2 weeks, Mean, Weight Gain (g/day)/Feed Intake (g/day)
  Food Efficiency Ratio (FER) 2 weeks: −0.223
DIO mice, 7-week, Compositions 1, 2 1300 mg/kg/day, 3, 9 1700 mg/kg/day, orlistat 40 mg/kg 2 times/day, sibutramine 10 mg/kg 1 time/day
  Weight Gain 7-week: 0.56
DIO mice, 7-week, doses as in Example 76
  Average Feed Intake 7-week: 3.09
DIO mice, 7 weeks, Mean, Weight Gain (g/day)/Feed Intake (g/day)
  Food Efficiency Ratio (FER) 7 weeks: 0.005
DIO mice, Body weight gain (g/day)/Food intake (g/day), G1 = 800 mg/kg orally twice a day
  FER (Food efficiency ratio): −0.001
DIO mice, Body weight gain (g/day)/Food intake (g/day), G1 = 1,100 mg/kg orally twice a day
  FER (Food efficiency ratio): −0.001
DIO mice, Body weight gain (g/day)/Food intake (g/day), G1 = 1,200 mg/kg orally twice a day
  FER (Food efficiency ratio): −0.001
DIO mice, FER = Weight Gain (g/day)/Food intake (g/day)
  FER (Food efficiency ratio): 0.006
DIO mice, FER = body weight gain (g/day)/food intake (g/day), SIB 10 mg/kg, ORI 40 mg/kg, Mutamba extract 32 (G1) 1000 mg/kg, mean
  Food Efficiency Ratio (FER): 0.013
DIO mice, FER = body weight gain (g/day)/food intake (g/day), SIB 10 mg/kg, ORI 40 mg/kg, Mutamba extract 33-2 G1 1000 mg/kg, mean
  Food Efficiency Ratio (FER): 0.034
[34]
  Absolute Organ Weight, PeriRenal Fat: 0.388 g
  Absolute Organ Weight, Retroperitoneal Fat: 0.567 g
